US20250302799A1, “PHARMACEUTICAL COMPOSITION CONTAINING FRAXETIN FOR PREVENTION OR TREATMENT OF ENDOMETRIOSIS” (Research & Business Foundation Sungkyunkwan University, priority 2024, published 2025)

Legend:
Type in all cases: cell-based, human
[1] = tested on: End1/E6E7 cells; experiment: Western blot analysis of protein expression and phosphorylation
Experimental: To analyze protein expression related to the development of endometriosis following fraxetin treatment, the inventors conducted western blot analysis.
Briefly, endometrial cells were treated with fraxetin in a dose-dependent manner or in combination with signaling pathway inhibitors. Total proteins were extracted from the treated cells, and protein quantification was performed using the Bradford protein assay (Bio-Rad, Hercules, CA, USA). The extracted proteins were then denatured at 95° C. for 5 minutes and subjected to electrophoresis on a 10% SDS/PAGE gel before being transferred to a nitrocellulose membrane. The membrane was subsequently incubated with primary and secondary antibodies, and target protein expression was analyzed using chemiluminescence detection reagents (Supersignal West Pico, Pierce, Rockford, IL, USA) with the ChemiDoc EQ system and Quantity One software (Bio-Rad).

[2] = tested on: End1/E6E7 cells; experiment: Cell viability with signaling pathway inhibitors alone or combined with fraxetin; conditions: wortmannin 1 μM, U0126 20 μM
Experimental: (§1) The AKT inhibitor wortmannin (1 μM), ERK1/2 inhibitor U0126 (20 μM), and JNK inhibitor SP600125 (20 μM) were used.

[3] = tested on: VK2/E6E7 cells; experiment: as above; conditions: wortmannin 1 μM, U0126 20 μM
Experimental: as §1

[4] = tested on: End1/E6E7 cells; experiment: ROS generation by DCFH-DA flow cytometry
Experimental: (§2) To assess the inhibitory effect of fraxetin on ROS generation in endometrial cells, the inventors used flow cytometry to measure ROS levels. In brief, endometriosis cells were stained with DCFH-DA (final concentration 10 μM) for 30 minutes and treated with 50 μM fraxetin in experimental groups, with or without 2 mM N-acetylcysteine (NAC; Cat No. A0737, Sigma), in a 37° C. incubator. Afterward, the cells were washed with PBS, and ROS levels were detected by measuring fluorescence DCF via flow cytometry.

[5] = tested on: VK2/E6E7 cells; experiment: ROS generation by DCFH-DA flow cytometry
Experimental: as §2

[6] = tested on: End1/E6E7 cells; experiment: BrdU cell proliferation assay; conditions: End1/E6E7, 48 hours
Experimental: (§3) To examine the effects of fraxetin on cell proliferation, the inventors performed a BrdU cell proliferation assay.
(§4) First, 5×10^3 cells of VK2/E6E7, End1/E6E7, and T-HESC were each distributed in 100 μL of medium in 96-well plates.
(§5) Fraxetin was then administered in a dose-dependent manner (0μM, 5 μM, 10 μM, 20 uM, 50 μM, 100 uM) and cultured for 48 hours, followed by the BrdU assay using a BrdU kit (Cat No: 1167229001, Roche) according to the manufacturer's instructions.
(§6) After 48 hours of incubation, 10 μM BrdU (Bromodeoxyuridine) was added to each well and incubated at 37° C. in a 5% CO2 incubator for 2 hours. The cells were then fixed, reacted with anti-BrdU-POD solution at room temperature for 90 minutes, and washed three times. Finally, 100 μL of 3, 3′, 5, 5′-tetramethylbenzidine substrate was added, and absorbance was measured at wavelengths of 370 nm and 492 nm to analyze cell proliferation.

[7] = tested on: VK2/E6E7 cells; experiment: BrdU cell proliferation assay; conditions: VK2/E6E7, 48 hours
Experimental: as §3, §4, §5, §6

[8] = tested on: End1/E6E7 cells; experiment: Mitochondrial membrane potential by JC-1 staining; conditions: End1/E6E7, with tiRNA^HisGTG inhibitor
Experimental: To examine changes in mitochondrial membrane potential (MMP) in endometrial cells induced by fraxetin, the inventors used a mitochondria staining kit (Cat no: CS0390, Sigma-Aldrich) to measure MMP.
In brief, End1/E6E7 and […] endometrial cell lines were cultured in 6-well plates, treated with fraxetin in a dose-dependent manner (0 μM, 5 μM, 10 μM, 20 μM, 50 μM, 100 μM), and incubated at 37° C. in a 5% CO2 incubator for 48 hours. Afterward, the cells were detached using trypsin, centrifuged to obtain cell pellets, resuspended in JC-1 staining solution, and incubated at 37° C. in a 5% CO2 incubator for 20 minutes. The stained cells were centrifuged again, washed with 1X JC-1 staining buffer, and analyzed using flow cytometry to assess changes in mitochondrial membrane potential.

[9] = tested on: VK2/E6E7 cells; experiment: Mitochondrial membrane potential by JC-1 staining; conditions: VK2/E6E7, with tiRNA^HisGTG inhibitor
[10] = tested on: End1/E6E7 cells; experiment: Apoptosis by Annexin V and propidium iodide staining; conditions: End1/E6E7, with tiRNA^HisGTG inhibitor
Experimental: (§7) To assess the apoptosis-inducing effect of fraxetin in endometrial cells, the inventors used a FITC Annexin V Apoptosis Detection Kit I (BD Sciences).
(§8) First, VK2/E6E7 and End1/E6E7 cells were cultured in 6-well plates, treated with fraxetin in a dose-dependent manner (0 μM, […], 10 μM, 20 µM, 50 μM, 100 μM), and incubated for 48 hours at 37° C. in a 5% CO2 incubator. The cells were then detached using trypsin, washed with PBS, and mixed slowly with 1 mL of 1X binding buffer. After centrifugation, the cell pellet was resuspended in 200 μL of 1X binding buffer. The suspension (100 μL) was transferred to a 1.5 mL brown tube, and 5 μL of Annexin V and PI (propidium iodide) were added, followed by staining at room temperature for 15 minutes. After adding 400 μL of 1X binding buffer, the stained solution was transferred to a 5 mL FACS tube, and the number of apoptotic cells was measured by analyzing fluorescence intensity using flow cytometry.

[11] = tested on: VK2/E6E7 cells; experiment: as above; conditions: VK2/E6E7, with tiRNA^HisGTG inhibitor
Experimental: as §7, §8

[12] = tested on: End1/E6E7 cells; experiment: tiRNA expression by real-time PCR; conditions: End1/E6E7, inhibitor 40 nM transfected
Experimental: (§9) To confirm the expression of tiRNA (tRNA-derived stress-induced RNAs) associated with the development of endometriosis, the inventors conducted real-time PCR.
(§10) First, information on candidate tiRNA sequences and mature tRNA sources was obtained from MINTbase (https://cm.jefferson.edu/MINTbase/). miRNA CDNA synthesis was performed using a cDNA kit (Agilent Technologies) to confirm tiRNA expression, with U6 snRNA used for normalization. For transfection of the tiRNA^His GTG inhibitor (5′-AACCGAGAGUACUAACCACUAUACGAUCACCGC-3′) (40 nM), Lipofectamine 2000 was used in Opti-MEM.

[13] = tested on: VK2/E6E7 cells; experiment: tiRNA expression by real-time PCR; conditions: VK2/E6E7, inhibitor 40 nM transfected
Experimental: as §9, §10

## N#CC(=C(/N)Sc1ccccc1N)/C(C#N)=C(\N)Sc1ccccc1N [U0126]
[1]; End1/E6E7, inhibitor 20 μM
  S6 phosphorylation, combined with fraxetin compared to fraxetin alone: further downregulated
[2]
  cell viability, combined treatment with fraxetin compared to inhibitor alone: marked decrease
[3]
  cell viability, combined treatment with fraxetin compared to inhibitor alone: marked decrease

## COC[C@H]1OC(=O)c2coc3c2[C@@]1(C)C1=C(C3=O)[C@@H]2CCC(=O)[C@@]2(C)C[C@H]1OC(C)=O [wortmannin, reference compound]
[1]; End1/E6E7, wortmannin 1 μM
  JNK phosphorylation: no significant effect

## CC(=O)N[C@@H](CS)C(=O)O [NAC, N-acetylcysteine, reference compound]
[4]; End1/E6E7, 2 mM NAC
  fraxetin-induced increase of ROS generation under co-treatment: mitigated
[5]; VK2/E6E7, 2 mM NAC
  fraxetin-induced increase of ROS generation under co-treatment: mitigated

## tiRNA^HisGTG inhibitor: tiRNA^His GTG inhibitor (5′-AACCGAGAGUACUAACCACUAUACGAUCACCGC-3′), 40 nM, transfected with Lipofectamine 2000 (AACCGAGAGUACUAACCACUAUACGAUCACCGC; chemistry not given here) [reference compound]
[6]
  cell proliferation, sequential treatment with fraxetin: decreased
[7]
  cell proliferation, sequential treatment with fraxetin: decreased
[8]
  fraxetin-induced MMP loss: significantly mitigated
[9]
  fraxetin-induced MMP loss: significantly mitigated
[10]
  fraxetin-induced apoptosis: inhibited
[11]
  fraxetin-induced apoptosis: inhibited
[12]
  tiRNA^HisGTG mRNA expression: decreased
[13]
  tiRNA^HisGTG mRNA expression: decreased

## C[C@]12CCC3=C4CCC(=O)C=C4CC[C@H]3[C@@H]1CC[C@@]2(O)CC#N [dienogest, reference compound]
[4]; End1/E6E7, Example 7 comparison fraxetin vs dienogest
  relative ROS generation: did not show significant changes
[5]; VK2/E6E7, Example 7 comparison fraxetin vs dienogest
  relative ROS generation: did not show significant changes
